Assay type in all cases: cell-based, human
For one assay, the system named is BE1 stem cells. Kind of assay: Small molecule screen and dose-response in 384-well plates, BE1 stem cells.
The subject of assay [1] is normal esophageal stem cells. Kind of assay: Small molecule screen and dose-response in 384-well plates, normal esophageal stem cells.
The subject of assay [2] is BE1 and normal esophageal stem cells. The assay is described as follows: Co-cultures of BE1 and normal esophageal stem cells. The following applies: in combination with ponatinib. The text has this: FIGS. 6a-g. Drug development for precursor lesions. FIG. 6a. […] FIG. 6b. […] FIG. 6c. Dose-response curves of candidate drug (CEP-18770). FIG. 6d. […] FIG. 6e. […] FIG. 6f. […] FIG. 6g.
Small molecule screens against precursor stem cells. Given that Barrett's esophagus is an essential precursor for EAC, the inventors adapted BE1 stem cells to high-throughput screening platforms to identify proof-of-concept leads for preemptive therapies.

Regarding `Cc1ccc(C(=O)Nc2ccc(CN3CCN(C)CC3)c(C(F)(F)F)c2)cc1C#Cc1cnc2cccnn12` [ponatinib, 3-[2-(Imidazo[1,2-b]pyridazin-3-yl)ethynyl]-4-methyl-N-[4-(4-methylpiperazin-1-ylmethyl)-3-(trifluoromethyl)phenyl]benzamide], in the assay with BE1 stem cells (single agent), the “Growth of BE1 stem cells” value is recorded as “marginally inhibiting the growth”. Moreover, the “Growth of normal esophageal stem cells” value in assay [1] (single agent, screens of stem cells from eight cases) is on record as “best of these esophageal stem cell “promoters””.
Regarding `CN[C@@H](C)C(=O)N[C@H]1CCCC[C@H]2CC[C@@H](C(=O)N[C@@H](c3ccccc3)c3cn(CCCCc4ccc(CCCCn5cc([C@@H](NC(=O)[C@@H]6CC[C@@H]7CCCC[C@H](NC(=O)[C@H](C)NC)C(=O)N76)c6ccccc6)nn5)cc4)nn3)N2C1=O` [SM-164], the IC50 with BE1 stem cells (in combination with ponatinib, read-out: IC50 for eliminating BE1 stem cells) is less than 1 nM. The “Impact on normal esophageal stem cells” value in assay [1] (in combination with ponatinib) is recorded as “minimal impact”. Besides, the “Effect on normal esophageal stem cells in co-culture” value in assay [2] (co-culture with BE1 stem cells) is given as “promotes the expansion”. The “Effect on BE1 cells in co-culture” value in assay [2] (co-culture with normal esophageal stem cells) is given as “selectively eliminates the BE1 cells”.

The term IC50 denotes the point on the concentration scale where inhibition reaches its midpoint.

Values taken from US20250281624A1, “METHODS AND COMPOSITIONS FOR TREATING CHRONIC INFLAMMATORY INJURY, METAPLASIA, DYSPLASIA AND CANCERS OF EPITHELIAL TISSUES” (University of Houston System, priority 2021, published 2025).
